From ChEMBL document CHEMBL5608207, “Development of narrow-spectrum topoisomerase-targeting antibacterials against mycobacteria” (Eur J Med Chem, 2024) come the findings set out here.

The subject of assay [1] is Mycobacterium tuberculosis. The assay is described as follows: Antimycobacterial activity against Mycobacterium tuberculosis H37Rv ATCC 25618 assessed as reduction in viability incubated for 6 days by resazurin reduction microplate assay. Format: functional. To be noted: H37Rv ATCC 25618, 144 h, time 6 day. On the technique in general: The colour change of resazurin is a common sign of viable cells or microbes.

Assay [2] has as its system Mycobacteroides abscessus. The assay is described as follows: Antimycobacterial activity against Mycobacterium abscessus RIVM incubated for 1 day by resazurin reduction microplate assay. Format: functional. To be noted: 24 h.
Assay [3] deals with Mycolicibacterium smegmatis. Description: Antimycobacterial activity against Mycobacterium smegmatis MC2 incubated for 2 days by resazurin reduction microplate assay. Format: functional. The conditions noted are these: MC2, 48 h, time 2 day.
For another assay, the system named is Enterobacter cloacae. The assay is described as follows: Antibacterial activity against Enterobacter cloacae ATCC13047 incubated for 18 hrs by serial broth microdilution method. Format: functional.
The next assay relates to Pseudomonas aeruginosa. Description: Antibacterial activity against Pseudomonas aeruginosa ATCC 27853 incubated for 18 hrs by serial broth microdilution method. Format: functional. In general terms: In broth dilution the organism is exposed to a series of concentrations in liquid medium.
The next assay relates to Acinetobacter baumannii. Description: Antibacterial activity against Acinetobacter baumannii ATCC17978 incubated for 18 hrs by serial broth microdilution method. Format: functional.
A further assay concerns Klebsiella pneumoniae. The assay is described as follows: Antibacterial activity against Klebsiella pneumoniae ATCC10031 incubated for 18 hrs by serial broth microdilution method. Format: functional.
For assay [4], the target named is DNA topoisomerase 2-alpha (Homo sapiens) (UniProt P11388). Description: Inhibition of human DNA topoisomerase II alpha assessed as residual activity at 10 uM using supercoiled pNO1 plasmid as substrate incubated for 30 mins by diamond dye staining based fluorescence microplate reader assay relative to control.
For assay [5] the target is unchanged. Description: Inhibition of human DNA topoisomerase II alpha assessed as residual activity at 100 uM using supercoiled pNO1 plasmid as substrate incubated for 30 mins by diamond dye staining based fluorescence microplate reader assay relative to control.
Another assay has as its system Staphylococcus aureus. Description: Antibacterial activity against Staphylococcus aureus ATCC 29213 incubated for 18 hrs by serial broth microdilution method. Format: functional.
For assay [6], the system named is Escherichia coli. The assay is described as follows: Antibacterial activity against Escherichia coli ATCC 25922 incubated for 18 hrs by serial broth microdilution method. Format: functional.
Assay [7] deals with Escherichia coli. Description: Antibacterial activity against Escherichia coli ATCC 25922 harboring deltaTolC mutant incubated for 18 hrs by serial broth microdilution method. Format: functional.
For assay [8], the system named is Mycobacterium tuberculosis. Description: Antimycobacterial activity against GFP-expressing Mycobacterium tuberculosis H37Rv infected in PMA-treated THP-1 cells assessed as bacterial viability at 10 uM pre-infected for 3 hrs prior to gentamycin addition for 1 hr followed by washout and compound addition measured after 4 days by fluorescence microscopic analysis (reference value: 100%). Format: functional. To be noted: time 4 day.

Assay [9] deals with Mycobacterium tuberculosis. Description: Antimycobacterial activity against GFP-expressing Mycobacterium tuberculosis H37Rv infected in PMA-treated THP-1 cells assessed as number of viable macrophages at 10 uM pre-infected for 3 hrs prior to gentamycin addition for 1 hr followed by washout and compound addition measured after 4 days by fluorescence microscopic analysis. Format: functional. To be noted: time 4 day.

Molecules are shown by their SMILES. Values after ≈ are worked out from the molar mass of the structure shown. Active and inactive are the calls of the source. The calls are words filed in the database; no cut-off is given here.

Chain of DNA topoisomerase 2-alpha (Homo sapiens) (P11388 whole entry): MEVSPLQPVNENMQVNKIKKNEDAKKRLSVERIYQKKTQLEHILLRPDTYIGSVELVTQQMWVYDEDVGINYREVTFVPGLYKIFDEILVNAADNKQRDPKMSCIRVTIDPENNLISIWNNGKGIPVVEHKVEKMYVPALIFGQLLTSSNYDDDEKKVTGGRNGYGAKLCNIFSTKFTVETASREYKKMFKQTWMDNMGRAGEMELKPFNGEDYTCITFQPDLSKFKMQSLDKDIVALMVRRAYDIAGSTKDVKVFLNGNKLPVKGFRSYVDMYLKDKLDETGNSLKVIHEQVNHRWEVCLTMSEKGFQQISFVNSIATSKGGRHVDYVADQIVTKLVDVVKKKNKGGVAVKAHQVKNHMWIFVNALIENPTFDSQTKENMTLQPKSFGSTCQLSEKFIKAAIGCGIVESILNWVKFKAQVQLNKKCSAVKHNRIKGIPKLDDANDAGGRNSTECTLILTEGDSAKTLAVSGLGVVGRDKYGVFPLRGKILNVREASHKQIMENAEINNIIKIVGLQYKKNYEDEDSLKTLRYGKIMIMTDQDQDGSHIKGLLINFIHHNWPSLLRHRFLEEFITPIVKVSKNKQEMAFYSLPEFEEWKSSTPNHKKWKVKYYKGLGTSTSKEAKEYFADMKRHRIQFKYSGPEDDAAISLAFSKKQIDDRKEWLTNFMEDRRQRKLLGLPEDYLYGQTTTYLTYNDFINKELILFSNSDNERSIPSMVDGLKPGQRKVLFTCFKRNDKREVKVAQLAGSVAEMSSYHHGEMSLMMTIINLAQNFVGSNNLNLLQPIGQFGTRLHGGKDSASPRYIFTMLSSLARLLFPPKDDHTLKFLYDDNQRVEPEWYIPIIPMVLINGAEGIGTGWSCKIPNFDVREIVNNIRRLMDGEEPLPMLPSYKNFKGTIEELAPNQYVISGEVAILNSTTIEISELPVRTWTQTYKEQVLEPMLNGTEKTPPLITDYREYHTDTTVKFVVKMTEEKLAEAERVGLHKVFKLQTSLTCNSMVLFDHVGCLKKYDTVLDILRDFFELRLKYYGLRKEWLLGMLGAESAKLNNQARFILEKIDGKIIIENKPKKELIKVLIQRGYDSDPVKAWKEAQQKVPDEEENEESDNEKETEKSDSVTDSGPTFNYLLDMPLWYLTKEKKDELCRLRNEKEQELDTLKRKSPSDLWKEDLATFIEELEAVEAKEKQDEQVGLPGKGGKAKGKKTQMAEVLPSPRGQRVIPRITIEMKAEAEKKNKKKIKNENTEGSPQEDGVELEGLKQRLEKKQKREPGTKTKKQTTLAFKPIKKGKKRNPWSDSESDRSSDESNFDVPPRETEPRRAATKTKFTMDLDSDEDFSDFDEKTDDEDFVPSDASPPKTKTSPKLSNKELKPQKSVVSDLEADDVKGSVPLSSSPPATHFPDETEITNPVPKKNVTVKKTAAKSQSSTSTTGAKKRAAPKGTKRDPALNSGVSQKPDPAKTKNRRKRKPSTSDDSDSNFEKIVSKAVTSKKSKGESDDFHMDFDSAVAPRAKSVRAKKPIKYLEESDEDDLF

By MIC90 is commonly meant an inhibitory concentration at the 90% level, which refers to growth in some studies and to a panel of isolates in others. For `Cc1[nH]c(C(=O)Nc2nc3c(OCC(C)N(C)C)cc(C(=O)O)cc3s2)c(Cl)c1Cl` (centres undefined), the MIC90 in [1] amounted to 40 µM (≈ 18.9 µg/mL); in assay [2] it was 0.63 µM (≈ 0.297 µg/mL); in assay [3], 10 µM (≈ 4.71 µg/mL).
`Cc1[nH]c(C(=O)Nc2nc3c(OC(CN(C)C)c4ccccc4)cc(C(=O)O)cc3s2)cc1F` (centres undefined): the MIC90 in the assay with Enterobacter cloacae was over 133 µM; in assay [1] it was 2.5 µM (≈ 1.21 µg/mL); in the assay on Pseudomonas aeruginosa it was 33 µM (≈ 15.9 µg/mL); in assay [2], 0.31 µM (≈ 0.15 µg/mL); against Acinetobacter baumannii, over 133 µM; in the assay on Klebsiella pneumoniae it was 2 µM (≈ 0.965 µg/mL). The MIC90 in the assay with Staphylococcus aureus came to 33 µM (≈ 15.9 µg/mL); in assay [3], 1.25 µM (≈ 0.603 µg/mL); against Escherichia coli [6], 133 µM (≈ 64.2 µg/mL). Also, the Activity in assay [4] and in [5] was 99% each time.
For the compound `Cc1[nH]c(C(=O)Nc2nc3c(OC4CCNC4)cc(C(=O)O)cc3s2)c(Cl)c1Cl` (centres undefined), the MIC90 in assay [1] was 2.5 µM (≈ 1.14 µg/mL); against Pseudomonas aeruginosa, over 130 µM; in the assay on Escherichia coli [7], 130 µM (≈ 59.2 µg/mL); in assay [2], 10 µM (≈ 4.55 µg/mL); in the assay on Acinetobacter baumannii, over 130 µM; against Klebsiella pneumoniae, over 130 µM. Also, the MIC90 against Staphylococcus aureus was over 130 µM; in [3], over 20 µM; with Escherichia coli [6] it was 130 µM (≈ 59.2 µg/mL). The Activity in [4] and in assay [5] was 102% in each case.
Take `NNC(=O)c1ccncc1` [ISONIAZID]: in assay [8], the Activity was 4.9%.
On to `Cc1[nH]c(C(=O)Nc2nc3c(OC(CN4CCC(N)CC4)c4ccccc4)cc(C(=O)O)cc3s2)c(Cl)c1Cl` (centres undefined), for which the MIC90 in assay [1] was found to be 1.25 µM (≈ 0.736 µg/mL); in assay [2], 0.63 µM (≈ 0.371 µg/mL); in [3], 0.63 µM (≈ 0.371 µg/mL). Moreover, in the assay with Escherichia coli [6], the result was Active.
Take `Cc1[nH]c(C(=O)Nc2nc3c(OC(CN4CCN(C)CC4)c4ccccc4)cc(C(=O)O)cc3s2)c(Cl)c1Cl` (centres undefined): the MIC90 in assay [1] was 20 µM (≈ 11.8 µg/mL); in [2] it was 2.5 µM (≈ 1.47 µg/mL); in [3], 2.5 µM (≈ 1.47 µg/mL).
Turning to `CO[C@H]1/C=C/O[C@@]2(C)Oc3c(C)c(O)c4c(O)c(c(/C=N/N5CCN(C)CC5)c(O)c4c3C2=O)NC(=O)/C(C)=C\C=C\[C@H](C)[C@H](O)[C@@H](C)[C@@H](O)[C@@H](C)[C@H](OC(C)=O)[C@@H]1C` [RIFAMPIN], the Activity in assay [8] amounted to 1.4%; in assay [9], 100%.
For the compound `Cc1[nH]c(C(=O)Nc2nc3c(OC(CN)c4ccccc4)cc(C(=O)O)cc3s2)c(Cl)c1Cl` (centres undefined), the MIC90 stood at 1.25 µM (≈ 0.632 µg/mL) in assay [1], 0.63 µM (≈ 0.318 µg/mL) in [2] and 1.25 µM (≈ 0.632 µg/mL) in [3].
Turning to `C[C@H]1COc2c(N3CCN(C)CC3)c(F)cc3c(=O)c(C(=O)O)cn1c23` [LEVOFLOXACIN ANHYDROUS], in assay [8], the Activity is on record as 2.3%.
